{
  "source": "paper PMC7795096",
  "about": "“LPMO AfAA9_B and Cellobiohydrolase AfCel6A from A. fumigatus Boost Enzymatic Saccharification Activity of Cellulase Cocktail” (International Journal of Molecular Sciences, 2020)",
  "biological_target": "T1, AfCel6A (Aspergillus fumigatus, UniProt Q4WFK4)",
  "T1 construct": "gene cbhC; without predicted signal peptide (forward primer encodes QQTVW start) in pPICZαA, with N-terminal CBM1, His6 tag kept, secreted by Pichia pastoris X-33, about 65 kDa",
  "T1 sequence (Q4WFK4 20-454)": "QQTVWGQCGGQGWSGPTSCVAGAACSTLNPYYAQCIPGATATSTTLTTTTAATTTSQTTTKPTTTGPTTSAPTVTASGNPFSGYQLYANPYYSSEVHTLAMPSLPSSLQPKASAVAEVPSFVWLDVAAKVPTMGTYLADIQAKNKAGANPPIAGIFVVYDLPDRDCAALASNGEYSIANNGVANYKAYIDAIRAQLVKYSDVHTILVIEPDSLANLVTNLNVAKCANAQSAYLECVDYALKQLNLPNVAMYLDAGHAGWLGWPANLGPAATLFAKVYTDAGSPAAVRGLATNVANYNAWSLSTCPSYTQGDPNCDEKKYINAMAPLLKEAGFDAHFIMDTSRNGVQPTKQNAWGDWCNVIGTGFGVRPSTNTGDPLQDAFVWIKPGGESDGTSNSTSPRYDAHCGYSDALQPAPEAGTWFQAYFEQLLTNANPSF",
  "experiment": "activity at rising sugar concentration ([…]), substrate 4-nitrophenyl β-D-cellobioside",
  "assay_type": "biochemical",
  "details": "product inhibition; the text also states 50% inhibition at 100 mM",
  "data": [
    {"smiles": "OC[C@H]1O[C@@H](O[C@H]2[C@H](O)[C@@H](O)C(O)O[C@@H]2CO)[C@H](O)[C@@H](O)[C@@H]1O", "note": "(stereo partly shown) [cellobiose]", "values": [
      {"measurement": "IC50", "result": "> 100", "unit": "mM"}
    ]}
  ]
}
